Test results as given in patent publication US5034510A, “Antibacterial substance” (Shin-Etsu Chemical Co., Ltd., priority 1986, dated 1991).
Where no end group is shown, it is not given here.

Assays:
Experiment in all cases: MIC by broth dilution method
Format in all cases: cell-based
[1] = tested on: Streptococcus hemolyticus; conditions: S. hemo
Description: (§1) Using the substances finally obtained in the above-described Experiments 35 to 42 and having no blocking group, MIC (minimum growth inhibitory concentration) against various bacteria was examined according to the broth dilution method, and the antibacterial activities were evaluated.
(§2) H--(1-23)--NH(CH2)7 CH3 was synthesized according to the same procedures as described in Experiments 1 to 35, and the antibacterial activities thereof against various bacteria were examined in the same manner as in Example 1.

[2] = tested on: E. coli JC-2
Description: as §1, §2

[3] = tested on: Proteus mirabilis 129; conditions: P. mira 129
Description: as §1, §2

[4] = tested on: Enterobacter aerogenes IFO 13545; conditions: E. aero 13534
Description: as §1, §2

[5] = tested on: Pseudomonas aeruginosa 99; conditions: P. aeru 99
Description: as §1, §2

[6] = tested on: Escherichia coli D 21
Description: as §1, §2

[7] = tested on: Bacillus subtilis PCI 219; conditions: B. sub 219
Description: as §1, §2

[8] = tested on: Salmonella enteritidis IFO 3313; conditions: S. ent 3313
Description: as §1, §2

[9] = tested on: Escherichia coli NIHJ; conditions: E. coli NIHJ
Description: as §1, §2

[10] = tested on: Pseudomonas aeruginosa; conditions: P. aeru
Description: as §1, §2

[11] = tested on: Micrococcus luteus ML II; conditions: M. lute ML II
Description: as §1, §2

[12] = tested on: Staphylococcus aureus FDA 209P; conditions: S. aure 209-P
Description: as §1, §2

[13] = tested on: Proteus mirabilis 1287; conditions: P. mira 1287
Description: as §1, §2

[14] = tested on: Pseudomonas aeruguinosa OT 97; conditions: P. aeru OT 97
Description: as §1, §2

Question: Which MIC ([1]; Table 1) does the source give for “RWKIFKKIEKMGRNIRDGIVKAGPAIEVLGSAKAI-NH2 [Synthetic lepidopteran A, lepidopteran A, reference compound]” here?
Answer: -- (Symbol "--" is meant to be MIC > 250 mcg/ml)

Question: What about the MIC ([1]; Table 2) of the same substance?
Answer: -- (Symbol "--" is meant to be MIC > 250 mcg/ml)

Question: What about the MIC ([2]; Table 1) of the same substance?
Answer: 4 µg/mL

Question: What about the MIC ([2]; Table 2) of the same substance?
Answer: 4 µg/mL

Question: And the MIC ([3]; Table 1)?
Answer: 32 µg/mL

Question: What about the MIC ([3]; Table 2) of the same substance?
Answer: 32 µg/mL

Question: What about the MIC ([4]; Table 1) of the same substance?
Answer: 8 µg/mL

Question: What about the MIC ([4]; Table 2) of the same substance?
Answer: 8 µg/mL

Question: And the MIC ([5]; Table 1)?
Answer: 8 µg/mL

Question: What about the MIC ([5]; Table 2) of the same substance?
Answer: 8 µg/mL

Question: What about the MIC ([6]; E. coli D 21, Table 1) of the same substance?
Answer: 2 µg/mL

Question: And the MIC ([6]; E. coli D, Table 2)?
Answer: 2 µg/mL

Question: What about the MIC ([7]; Table 1) of the same substance?
Answer: 32 µg/mL

Question: And the MIC ([7]; Table 2)?
Answer: 32 µg/mL

Question: And the MIC ([8]; Table 1)?
Answer: 4 µg/mL

Question: What about the MIC ([8]; Table 2) of the same substance?
Answer: 4 µg/mL

Question: What about the MIC ([9]; Table 1) of the same substance?
Answer: 4 µg/mL

Question: What about the MIC ([9]; Table 2) of the same substance?
Answer: 4 µg/mL

Question: What about the MIC ([10]; Table 1) of the same substance?
Answer: 8 µg/mL

Question: And the MIC ([10]; Table 2)?
Answer: 8 µg/mL

Question: What about the MIC ([11]; Table 1) of the same substance?
Answer: 2 µg/mL

Question: What about the MIC ([11]; Table 2) of the same substance?
Answer: 2 µg/mL

Question: And the MIC ([12]; Table 1)?
Answer: 8 µg/mL

Question: And the MIC ([12]; Table 2)?
Answer: 125 µg/mL

Question: What about the MIC ([13]; Table 1) of the same substance?
Answer: 32 µg/mL

Question: And the MIC ([13]; Table 2)?
Answer: 32 µg/mL

Question: And the MIC ([14]; Table 1)?
Answer: 8 µg/mL

Question: What about the MIC ([14]; Table 2) of the same substance?
Answer: 8 µg/mL
